Experimental data: patent US9493464B2, “Wee1 degradation inhibitors” (The Scripps Research Institute, priority 2012, dated 2016)
Values joined by “and” are separate entries in the source; they are usually repeats but may differ in a detail not shown here. Identical values can stand only once. Like-named read-outs stand apart in the source and are kept apart here.

Legend:
[1] = tested on: GCPs in organotypic cerebellar slices; assay: Organotypic cerebellar slice GCP migration assay; type: cell-based, mice; settings: 500 nM, 48 hours; result in words
Source text: Cerebella from P7 mice were isolated and sliced using a vibratome. Subsequently, slices were electroporated with venus-GFP to visualize GCPs. […] Many GCPs migrate to the Purkinje cell layer in DMSO treated cells, but fewer do so in SR-653234 or SR-1277 treated slices. […] Phospho-Y15 Cdc2 is a measure of Wee1 activity. Skp-1 is used as a loading control.

A498 (renal) = assay: NCI Dose Growth Inhibition assay (NCI-60); type: cell-based; settings: Homo sapiens
Experimental: (§1) Table 3, below, illustrates the activity of some of the compounds of the present invention in the National Cancer Institute's Dose Growth Inhibition assay against several human tumor cell lines selected from the NCI-60 panel.
(§2) NCI-60 Cancer Cell Line Screening was performed by the National Cancer Institute, using the procedures described on their website (http://dtp.nci.nih.gov/branches/btb/ivelsp.html)

MDA-MB-468 (breast) = assay: NCI Dose Growth Inhibition assay (NCI-60); type: cell-based; settings: Homo sapiens
Experimental: as §1, §2

RXF393 (renal) = assay: NCI Dose Growth Inhibition assay (NCI-60); type: cell-based; settings: Homo sapiens, RXF 393
Experimental: as §1, §2

UACC-62 (melanoma) = assay: NCI Dose Growth Inhibition assay (NCI-60); type: cell-based; settings: Homo sapiens
Experimental: as §1, §2

SNB-75 (CNS) = assay: NCI Dose Growth Inhibition assay (NCI-60); type: cell-based; settings: Homo sapiens
Experimental: as §1, §2

COLO 205 (colon) = assay: NCI Dose Growth Inhibition assay (NCI-60); type: cell-based; settings: Homo sapiens
Experimental: as §1, §2

K328M-Wee1-luciferase = assay: Wee1-luciferase assay (stabilization of K328M-Wee1-luciferase); type: cell-based; settings: for EC50: read-out: EC50 for stabilization of K328M-Wee1-luciferase
Source text: Steady-state level of K328M-Wee1-Luciferase (K328M-Wee1-Luc) was divided by Luciferase level (Luc) and plotted.
Similar assays have previously been described; PubChem AID 1807.

FLT3 = target: T1, FLT3 (Homo sapiens, UniProt P36888); assay: In vitro kinase assay, FLT3 (Reaction Biology Corporation); type: biochemical; settings: 10 μM ATP; read-out: FLT3 IC50
T1 construct: Reaction Biology Corporation (contract assay)
T1 sequence (P36888 27-993): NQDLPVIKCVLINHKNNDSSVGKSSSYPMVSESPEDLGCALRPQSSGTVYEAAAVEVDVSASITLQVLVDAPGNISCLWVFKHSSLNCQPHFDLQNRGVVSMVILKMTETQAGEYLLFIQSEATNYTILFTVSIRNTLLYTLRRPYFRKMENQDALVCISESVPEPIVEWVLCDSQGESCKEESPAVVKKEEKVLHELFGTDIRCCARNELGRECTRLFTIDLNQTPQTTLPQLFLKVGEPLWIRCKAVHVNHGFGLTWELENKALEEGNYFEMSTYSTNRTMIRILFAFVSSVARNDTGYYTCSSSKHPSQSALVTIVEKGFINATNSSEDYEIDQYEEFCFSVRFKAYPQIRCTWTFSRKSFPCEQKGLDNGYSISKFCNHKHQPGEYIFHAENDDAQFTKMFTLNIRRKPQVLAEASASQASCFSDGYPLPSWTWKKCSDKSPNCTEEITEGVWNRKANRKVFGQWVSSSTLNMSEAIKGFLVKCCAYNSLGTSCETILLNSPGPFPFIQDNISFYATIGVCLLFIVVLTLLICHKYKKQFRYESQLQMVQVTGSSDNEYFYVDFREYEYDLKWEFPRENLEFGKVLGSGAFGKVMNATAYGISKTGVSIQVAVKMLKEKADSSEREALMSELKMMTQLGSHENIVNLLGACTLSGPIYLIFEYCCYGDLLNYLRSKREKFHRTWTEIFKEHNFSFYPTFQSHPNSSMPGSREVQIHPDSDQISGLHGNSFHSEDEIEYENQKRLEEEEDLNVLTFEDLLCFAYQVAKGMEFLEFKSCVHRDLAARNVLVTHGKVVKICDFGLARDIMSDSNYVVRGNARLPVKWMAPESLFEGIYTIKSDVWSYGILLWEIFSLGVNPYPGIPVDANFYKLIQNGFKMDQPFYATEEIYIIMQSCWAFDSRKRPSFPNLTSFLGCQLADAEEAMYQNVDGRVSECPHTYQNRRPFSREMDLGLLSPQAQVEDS
Experimental: (§3) Compounds were tested in 10-dose IC50 mode with 3-fold serial dilution starting at 50 μM. […] Reactions were carried out at 10 μM ATP. Average and standard deviations of reactions carried out in triplicate are shown.
(§4) In vitro kinase assay to detect CK1 or FLT3 activity: CK1 and FLT3 assays as well as complete kinase profile of 296 kinases was performed by Reaction Biology Corporation. For FLT3 20 μM final Abltide was used, sequence: [[…]]. For CK1 (all isoforms) 20 μM CK1 tide was used, sequence: [KRRRAL[pS]VASLPGL] in a standard kinase assay with ^32P-ATP and purified kinase. Incorporation of ^32P-ATP into the peptide was measured after a filter-binding assay. In-house CK1d inhibition assays were performed using a standard homogenous time-resolved fluorescence resonance energy transfer (TR-FRET) format in 50 mM Hepes, pH 7.0, 2.5 mM MgCl2, 0.1 mg/ml bovine serum albumin, 1 mM DL-dithiothreitol, 0.01% Triton X-100 (all from Sigma-Aldrich). Briefly, the CK1δ substrate (DEKTDDE, containing CK1 consensus sequence; 4 μL of a 500 nM stock solution) is labeled with a small Ulight acceptor dye (PerkinElmer). In the presence of 10 μL of 10 nM CK1δ, the Ulight peptide is phosphorylated at a single amino acid that is specifically recognized by a europium chelate (Eu)-labeled phosphospecific antibody. Assays were performed in the presence of 2 μL of compound at different (measured) concentrations, and reactions were stopped by adding 10 μL of 4 nM Eu-anti-p-Topo-IIa (PerkinElmer) in Lance Detection Buffer (Perkin Elmer). Upon excitation of the Eu-labeled antibody, energy is transferred to the acceptor dye resulting in the emission of detected light at 665 nm.

CK1δ = CK1δ (Homo sapiens, UniProt P48730); assay: In vitro kinase assay, CK1d, 32P-ATP filter binding (Reaction Biology Corporation); type: biochemical; settings: 10 μM ATP; read-out: CK1δ IC50
Sequence of CK1δ (P48730 whole entry): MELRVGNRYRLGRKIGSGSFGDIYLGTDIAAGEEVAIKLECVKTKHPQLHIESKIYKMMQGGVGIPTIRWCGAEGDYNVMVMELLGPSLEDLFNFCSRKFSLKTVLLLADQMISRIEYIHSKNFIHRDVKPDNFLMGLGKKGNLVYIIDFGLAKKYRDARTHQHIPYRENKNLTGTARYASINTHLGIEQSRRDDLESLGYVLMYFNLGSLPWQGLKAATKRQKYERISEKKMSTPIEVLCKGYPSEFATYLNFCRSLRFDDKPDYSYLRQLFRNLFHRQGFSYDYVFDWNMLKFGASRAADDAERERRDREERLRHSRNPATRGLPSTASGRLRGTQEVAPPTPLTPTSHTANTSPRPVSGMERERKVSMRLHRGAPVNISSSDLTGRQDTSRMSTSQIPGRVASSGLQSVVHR
Experimental: as §3, §4

Structure (SMILES) | GCP migration to the Purkinje cell layer [1] | GI50 (A498 (renal); A498 (renal), read-out: GI50) | GI50 (MDA-MB-468 (breast); MDA-MB-468 (breast), read-out: GI50) | GI50 (RXF393 (renal); RXF393 (renal), read-out: GI50) | GI50 (UACC-62 (melanoma); UACC-62 (melanoma), read-out: GI50) | GI50 (SNB-75 (CNS); SNB-75 (CNS), read-out: GI50) | GI50 (COLO 205 (colon); COLO 205 (colon), read-out: GI50) | EC50 (K328M-Wee1-luciferase; HeLa cells) | stabilization of K328M-Wee1-luciferase (K328M-Wee1-luciferase; HeLa cells, result in words) | % Inhibition, Wee1 Degradation (K328M-Wee1-luciferase; at 250 nM, reported relative to SR-1277 = 100%) | IC50 (FLT3) | IC50 (CK1δ) | GI50 (A498 (renal); A498) | GI50 (MDA-MB-468 (breast); MDA-MB-468) | GI50 (RXF393 (renal)) | GI50 (UACC-62 (melanoma); UACC-62) | GI50 (SNB-75 (CNS); SNB-75) | GI50 (COLO 205 (colon); COLO 205) | % Inhibition, Wee1 Degradation (K328M-Wee1-luciferase; 0.25 µM) | EC50 (K328M-Wee1-luciferase)
c1ccc2[nH]c(CNc3nc(N4CCOCC4)nc4c3ncn4-c3ccsc3)nc2c1 [SR-653234] | fewer do so | 72 nM | 16 nM | 26 nM | 68 nM | 25 nM | 26 nM | 624 nM | stabilizes Wee1-luciferase | 56.8% | 161 nM and 100 nM | 161 nM and 540 nM | – | – | – | – | – | – | – | –
O=[N+]([O-])c1cccc2[nH]c(CNc3nc(N4CCOCC4)nc4c3ncn4-c3ccsc3)nc12 [SR-1277] | fewer do so | – | – | – | – | – | – | – | – | – | 305 nM | 49 nM | 17 nM | < 10 nM | < 10 nM | 14 nM | < 10 nM | 15 nM | 100.0% | 40 nM
